Data taken from article PMC12700220, “Synthesis, photochemical and biological evaluation of novel photoswitchable glycomimetic ligands of Pseudomonas aeruginosa LecB” (RSC Advances, 2025).

Assays:
LecB [1] = biological target: T1, LecB (Pseudomonas aeruginosa, UniProt Q9HYN5); test: ITC after […] nm illumination; assay type: binding; parameters: N-terminal 6xHis-tagged LecB
LecB [2] = biological target: T1, LecB; test: (soak, […] Å) and ITC; assay type: binding; parameters: N-terminal 6xHis-tagged LecB (homotetramer)

T1 sequence (Q9HYN5 entry or part of it): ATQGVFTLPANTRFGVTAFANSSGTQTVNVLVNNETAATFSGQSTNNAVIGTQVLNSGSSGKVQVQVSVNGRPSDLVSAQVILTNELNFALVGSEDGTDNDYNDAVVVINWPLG

| Structure (SMILES) | Kd (LecB [1]) [µM] | Kd (LecB [2]) [µM] |
| --- | --- | --- |
| C[C@@H]1O[C@H](CNS(=O)(=O)c2ccc(/N=N\c3ccccc3)cc2)[C@@H](O)[C@H](O)[C@@H]1O (mixture of isomers) [photofucose-2, cis-photofucose-2] | 4.71 ± 2.61 | – |
| C[C@@H]1O[C@H](CNS(=O)(=O)c2ccc(/N=N/c3ccccc3)cc2)[C@@H](O)[C@H](O)[C@@H]1O [photofucose-2, 4-((E)-phenyldiazenyl)-N-(((2R,3S,4R,5S,6S)-3,4,5-trihydroxy-6-methyltetrahydro-2H-pyran-2-yl)methyl)benzenesulfonamide] | – | 1.82 ± 0.408 |
